Experimental data taken from patent US12234230B2, “Substituted benzyl-triazole compounds for Cbl-b inhibition, and further uses thereof” (Nurix Therapeutics, Inc., priority 2019, dated 2025).
Read-outs that look alike come from different tables or passages of the source.

Assays:
Cbl-b = Cbl-b (Homo sapiens (Human), UniProt Q13191); test: Cbl-b displacement assay (Cbl-b inhibition assay), Biological Example 1; format: binding
Description: The ability of candidate compounds to displace a known inhibitor and thereby inhibit Cbl-b activity was measured by monitoring the interaction of Cbl-b with a fluorophore-labeled probe in the presence of the candidate compound.
Following the one hour incubation, the plates were read for TR-FRET signal at 520/620 nm using an Envision plate reader (Perkin Elmer).

[1] = test system: primary human total T-cells; test: Primary human total T-cell activation (IL-2 secretion, CD25 surface staining), Biological Example 2; conditions: fold change over baseline; for CD25 staining CD3/CD28 0.3 μM / IL-2 secretion CD3/CD28 0.3 μM: 0.3 μM inhibitor; for CD25 staining CD3/CD28 0.3 μM / IL-2 secretion CD3/CD28 0.3 μM / CD25 staining CD3/CD28 1 μM / IL-2 secretion CD3/CD28 1 μM: anti-CD3 and anti-CD28 co-stimulation; for CD25 staining CD3/CD28 1 μM / IL-2 secretion CD3/CD28 1 μM / CD25 staining CD3 1 μM / IL-2 secretion CD3 1 μM: 1 μM inhibitor; for CD25 staining CD3 1 μM / IL-2 secretion CD3 1 μM / CD25 staining CD3 3 μM / IL-2 secretion CD3 3 μM: anti-CD3 stimulation alone; for CD25 staining CD3 3 μM / IL-2 secretion CD3 3 μM: 3 μM inhibitor
[2] = 0.125 nM Cbl-b final concentration (Low), read-out: Cbl-b activity IC50 (Low)

Cbl-b, sequence (Q13191 36-427): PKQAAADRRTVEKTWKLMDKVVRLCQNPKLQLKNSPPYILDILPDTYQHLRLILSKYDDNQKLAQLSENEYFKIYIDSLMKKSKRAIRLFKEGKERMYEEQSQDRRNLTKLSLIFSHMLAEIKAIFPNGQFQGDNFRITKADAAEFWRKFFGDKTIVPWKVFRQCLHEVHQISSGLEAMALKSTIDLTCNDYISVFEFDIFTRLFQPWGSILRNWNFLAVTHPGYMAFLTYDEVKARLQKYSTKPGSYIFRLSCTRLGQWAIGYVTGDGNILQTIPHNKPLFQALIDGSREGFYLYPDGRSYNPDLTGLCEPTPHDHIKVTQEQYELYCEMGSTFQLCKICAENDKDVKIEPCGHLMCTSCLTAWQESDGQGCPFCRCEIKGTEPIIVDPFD

Structure (SMILES)	IC50 (Cbl-b; [2]) [nM]	IC50 (Cbl-b; read-out: IC50 values in the Cbl-b inhibition assay of Biological Example 1) [nM]	IC50 (Cbl-b; 0.5 nM Cbl-b final concentration (High), read-out: Cbl-b activity IC50 (High)) [nM]	CD25 staining CD3/CD28 0.3 μM [1]	IL-2 secretion CD3/CD28 0.3 μM [1]	CD25 staining CD3/CD28 1 μM [1]	IL-2 secretion CD3/CD28 1 μM [1]	CD25 staining CD3 1 μM [1]	IL-2 secretion CD3 1 μM [1]	CD25 staining CD3 3 μM [1]	IL-2 secretion CD3 3 μM [1]
Cc1cc(C(=O)Nc2cccc([C@]3(c4nncn4C)C[C@@H](C)C3)c2)nc(C2CC2)n1 [Compound 21, 2-cyclopropyl-6-methyl-N-{3-[(1r,3s)-3-methyl-1-(4-methyl-1,2,4-triazol-3-yl)cyclobutyl]phenyl}pyrimidine-4-carboxamide]	20 to 100	–	–	B (B indicates 1.24-1.39 fold)	C (C indicates <20 fold)	B (B indicates 1.24-1.39 fold)	C (C indicates <20 fold)	B (B indicates 1.5-2.5 fold)	B (B indicates 0.70-1.1 fold)	B (B indicates 1.5-2.5 fold)	B (B indicates 0.70-1.1 fold)
CC(c1cc2c(c(C(F)(F)F)c1)CN(c1cccc([C@@H](c3nncn3C)C3CCC3)c1)C2=O)N1CCC[C@H](C)C1 (stereo partly drawn) [Compound 16, 2-(3-((S)-cyclobutyl(4-methyl-4H-1,2,4-triazol-3-yl)methyl)phenyl)-6-(1-((S)-3-methylpiperidin-1-yl)ethyl)-4-(trifluoromethyl)isoindolin-1-one]	20 to 100	20 to 100	–	–	C (C indicates <20 fold)	–	B (B indicates 20-35 fold)	A (A indicates >2.5 fold)	B (B indicates 0.70-1.1 fold)	A (A indicates >2.5 fold)	B (B indicates 0.70-1.1 fold)
C[C@H]1CCCN(Cc2cc3c(c(C(F)(F)F)c2)CN(c2cccc([C@]4(c5nncn5C)C[C@H](CC#N)C4)c2)C3=O)C1 [Compound 50, 2-((1S,3r)-3-(4-methyl-4H-1,2,4-triazol-3-yl)-3-(3-(6-(((S)-3-methylpiperidin-1-yl)methyl)-1-oxo-4-(trifluoromethyl)isoindolin-2-yl)phenyl)cyclobutyl)acetonitrile]	< 5	–	–	–	A (A indicates >35 fold)	–	A (A indicates >35 fold)	A (A indicates >2.5 fold)	A (A indicates >1.1 fold)	A (A indicates >2.5 fold)	A (A indicates >1.1 fold)
Cn1cnnc1C1(c2cccc(N3Cc4c(cc(CN5CCC[C@H](C(F)(F)F)C5)cc4C(F)(F)F)C3=O)c2)CC2(CC2)C1 [Compound 44, (S)-2-(3-(5-(4-methyl-4H-1,2,4-triazol-3-yl)spiro[2.3]hexan-5-yl)phenyl)-4-(trifluoromethyl)-6-((3-(trifluoromethyl)piperidin-1-yl)methyl)isoindolin-1-one]	< 5	–	–	–	B (B indicates 20-35 fold)	–	A (A indicates >35 fold)	A (A indicates >2.5 fold)	A (A indicates >1.1 fold)	A (A indicates >2.5 fold)	A (A indicates >1.1 fold)
CC[C@H]1CN(Cc2cc3c(c(C(F)(F)F)c2)CN(c2cccc([C@]4(c5nncn5C)C[C@@H](C)C4)c2)C3=O)CCO1 [Compound 27, 6-(((S)-2-ethylmorpholino)methyl)-2-(3-((1s,3R)-3-methyl-1-(4-methyl-4H-1,2,4-triazol-3-yl)cyclobutyl)phenyl)-4-(trifluoromethyl)isoindolin-1-one]	5 to 20	–	–	B (B indicates 1.24-1.39 fold)	C (C indicates <20 fold)	–	B (B indicates 20-35 fold)	C (C indicates <1.5 fold)	C (C indicates <0.70 fold)	C (C indicates <1.5 fold)	C (C indicates <0.70 fold)
Cc1cc(C(=O)Nc2cccc([C@@H](c3nncn3C)C3CCC3)c2)nc(C2CC2)n1 [Compound 12, (S)—N-(3-(cyclobutyl(4-methyl-4H-1,2,4-triazol-3-yl)methyl)phenyl)-2-cyclopropyl-6-methylpyrimidine-4-carboxamide]	–	–	> 100	–	C (C indicates <20 fold)	–	C (C indicates <20 fold)	C (C indicates <1.5 fold)	–	C (C indicates <1.5 fold)	–

Further lines, with some results ahead:

IC50 (Cbl-b; [2]) [nM]	IC50 (Cbl-b; read-out: IC50 values in the Cbl-b inhibition assay of Biological Example 1) [nM]	IC50 (Cbl-b; 0.5 nM Cbl-b final concentration (High), read-out: Cbl-b activity IC50 (High)) [nM]	Structure (SMILES)	CD25 staining CD3/CD28 0.3 μM [1]	IL-2 secretion CD3/CD28 0.3 μM [1]	CD25 staining CD3/CD28 1 μM [1]	IL-2 secretion CD3/CD28 1 μM [1]	CD25 staining CD3 1 μM [1]	IL-2 secretion CD3 1 μM [1]	CD25 staining CD3 3 μM [1]	IL-2 secretion CD3 3 μM [1]
< 5	–	–	CO[C@H]1C[C@](c2cccc(N3Cc4c(cc(CN5CCC(F)(F)[C@H](C)C5)cc4C(F)(F)F)C3=O)c2)(c2nncn2C)C1 [Compound 36, 6-(((R)-4,4-difluoro-3-methylpiperidin-1-yl)methyl)-2-(3-(trans-3-methoxy-1-(4-methyl-4H-1,2,4-triazol-3-yl)cyclobutyl)phenyl)-4-(trifluoromethyl)isoindolin-1-one]	–	C (C indicates <20 fold)	–	C (C indicates <20 fold)	C (C indicates <1.5 fold)	C (C indicates <0.70 fold)	C (C indicates <1.5 fold)	C (C indicates <0.70 fold)
< 5	–	–	C[C@@H]1CN(Cc2cc3c(c(C(F)(F)F)c2)CN(c2cccc(C4(c5nncn5C)CC5(CC5)C4)c2)C3=O)CCC1(F)F [Compound 41, 6-[[(3R)-4,4-difluoro-3-methyl-1-piperidyl]methyl]-2-[3-[5-(4-methyl-1,2,4-triazol-3-yl)spiro[2.3]hexan-5-yl]phenyl]-4-(trifluoromethyl)isoindolin-1-one]	–	B (B indicates 20-35 fold)	–	A (A indicates >35 fold)	A (A indicates >2.5 fold)	A (A indicates >1.1 fold)	A (A indicates >2.5 fold)	A (A indicates >1.1 fold)
20 to 100	–	–	C[C@@H]1CN(Cc2cc3c(c(C(F)(F)F)c2)CN(c2cccc([C@]4(c5nncn5C)C[C@H](C)C4)c2)C3=O)CCC1(F)F [Compound 20, 6-(((R)-4,4-difluoro-3-methylpiperidin-1-yl)methyl)-2-(3-((1r,3R)-3-methyl-1-(4-methyl-4H-1,2,4-triazol-3-yl)cyclobutyl)phenyl)-4-(trifluoromethyl)isoindolin-1-one]	B (B indicates 1.24-1.39 fold)	C (C indicates <20 fold)	B (B indicates 1.24-1.39 fold)	C (C indicates <20 fold)	A (A indicates >2.5 fold)	B (B indicates 0.70-1.1 fold)	A (A indicates >2.5 fold)	A (A indicates >1.1 fold)
5 to 20	–	–	C[C@H]1CCCN(Cc2cc3c(c(C4CC4)n2)CN(c2cccc([C@]4(c5nncn5C)C[C@@H](C)C4)c2)C3=O)C1 [Compound 25, 4-cyclopropyl-2-(3-((1s,3R)-3-methyl-1-(4-methyl-4H-1,2,4-triazol-3-yl)cyclobutyl)phenyl)-6-(((S)-3-methylpiperidin-1-yl)methyl)-2,3-dihydro-1H-pyrrolo[3,4-c]pyridin-1-one]	B (B indicates 1.24-1.39 fold)	C (C indicates <20 fold)	B (B indicates 1.24-1.39 fold)	C (C indicates <20 fold)	B (B indicates 1.5-2.5 fold)	B (B indicates 0.70-1.1 fold)	B (B indicates 1.5-2.5 fold)	B (B indicates 0.70-1.1 fold)
5 to 20	–	–	C[C@@H]1CN(Cc2cc3c(c(C4CC4)n2)CN(c2cccc([C@]4(c5nncn5C)C[C@@H](C)C4)c2)C3=O)CCC1(F)F [Compound 26, 4-cyclopropyl-6-(((R)-4,4-difluoro-3-methylpiperidin-1-yl)methyl)-2-(3-((1s,3S)-3-methyl-1-(4-methyl-4H-1,2,4-triazol-3-yl)cyclobutyl)phenyl)-2,3-dihydro-1H-pyrrolo[3,4-c]pyridin-1-one]	B (B indicates 1.24-1.39 fold)	C (C indicates <20 fold)	–	B (B indicates 20-35 fold)	A (A indicates >2.5 fold)	A (A indicates >1.1 fold)	A (A indicates >2.5 fold)	A (A indicates >1.1 fold)
5 to 20	–	–	C[C@H]1CCCN(Cc2cc3c(c(C(F)(F)F)c2)CN(c2cccc([C@]4(c5nncn5C)C[C@@H](O)C4)c2)C3=O)C1 [Compound 32, 2-(3-((1s,3R)-3-hydroxy-1-(4-methyl-4H-1,2,4-triazol-3-yl)cyclobutyl)phenyl)-6-(((S)-3-methylpiperidin-1-yl)methyl)-4-(trifluoromethyl)isoindolin-1-one]	–	B (B indicates 20-35 fold)	–	A (A indicates >35 fold)	A (A indicates >2.5 fold)	A (A indicates >1.1 fold)	A (A indicates >2.5 fold)	A (A indicates >1.1 fold)
